Data: paper PMC12340956, “Tranylcypromine-Based LSD1 Inhibitors as Useful Agents to Reduce Viability of” (ACS Infectious Diseases, 2025)

Experiments:
[1] = tested on: newly transformed schistosomula (NTS); assay: NTS viability phenotypic screening, 72 h; conditions: for IC50: Schistosoma mansoni, read-out: IC50 (NTS viability)
Method: For NTS and adult worms, transparent flat-bottom 96- and 24-well plates were used, respectively (Sarstedt, Switzerland). For juvenile worms, 48-well plates were used with 3–6 worms per plate and RPMI medium with 5% FCS and 1% penicillin/streptomycin. Compounds were initially tested at 20 and 10 μM in triplicate on NTS and repeated once; each well contained 30–40 NTS. Phenotypic reference points such as motility, morphology, and granularity were used to score incubated parasites’ overall viability (scores from 0 to 3). […] Identified hits from the NTS screening were tested on adult worms. […] The experiment was conducted in duplicate and repeated; standard deviations were calculated from two wells. […] For all in vitro assays, negative controls (DMSO at the highest tested concentration) were included.

adult worms = assay: Adult worm viability phenotypic assay, 72 h; conditions: Schistosoma mansoni, read-out: IC50 (adult worm viability)
[2] = molecular target: T1, human LSD1-CoREST complex (Homo sapiens, UniProt O60341); assay: HRP-coupled LSD1 inhibition assay; assay type: biochemical; conditions: 10 min preincubation; for IC50: read-out: IC50 (hLSD1 direct inhibition)
T1 construct: made in house
Method: Protein expression, thermal stability, and inhibition of human LSD1-CoREST were performed using established protocols. […] The reaction was initiated by adding an equal volume of the substrate solution to the enzyme–inhibitor mixture, and resorufin fluorescence (excitation at 530–570 nm and emission at 580–590 nm) was detected with a Clariostar plate reader.

[3] = molecular target: T1, human LSD1-CoREST complex; assay: ThermoFAD thermal stability assay; assay type: binding; conditions: LSD1-CoREST thermal stability
Method: Compounds 14–22 were tested against the human LSD1-CoREST complex to determine their inhibitory activity. […] ThermoFAD assays were then performed to assess the impact of 14–22 on the thermal stability (ΔT m values, Table ) of the LSD1-CoREST complex. The most significant shifts in Tm values corresponded to the strongest binders. […] Compound 22 was not tested, considering its previous negative results.
Protein expression, thermal stability, and inhibition of human LSD1-CoREST were performed using established protocols. […] LSD1-CoREST (0.4 μM) was preincubated with the inhibitor at 25 °C for 10 min in the presence of 5% DMSO. The reaction was initiated by adding an equal volume of the substrate solution to the enzyme–inhibitor mixture, and resorufin fluorescence (excitation at 530–570 nm and emission at 580–590 nm) was detected with a Clariostar plate reader.

Structure (SMILES) | Percentage of reduction of NTS viability, 72 h ([1]; 10 μM) [%] | Percentage of reduction of NTS viability, 72 h ([1]; 20 μM) [%] | IC50 [1] [µM] | IC50 (adult worms) [µM] | IC50 (hLSD1 direct inhibition) [2] | IC50 [2] [nM] | ΔTm [3]
Cl.NC1CC1c1ccc(NC(=O)c2ccc(C#Cc3ccccc3)cc2)cc1 (stereo not shown) [Compound 20, N-(4-(2-Aminocyclopropyl)phenyl)-4-(phenylethynyl)benzamide Hydrochloride] | 29.2 ± 0.0 | 77.8 ± 2.1 | > 10 | > 20 | single-digit μM inhibition | 4020 ± 410 | +8 °C
C#Cc1cccc(C(=O)Nc2ccc(C3CC3N)cc2)c1.Cl (stereo not shown) [Compound 16, N-(4-(2-Aminocyclopropyl)phenyl)-3-ethynylbenzamide Hydrochloride] | 31.2 ± 6.3 | 77.8 ± 2.1 | > 10 | > 20 |  | 70 ± 20 | +10 °C
